Our source for the IC50 and ring closure, yield of all isomers values is patent US20240415819A1, “MACROCYCLIC COMPOUNDS AS PROTEASOME SUBUNIT BETA TYPE-5 INHIBITORS” (Lead Discovery Center GmbH, priority 2021, published 2024).

Where two headings read alike, the source gives them in different places. A value given as a limit tells only on which side of the number the result lay.

In one series the test system is B cell. Nature of the series: B cell diff. (Table 4, method not given). Format: cell-based.
The test system of the next series is PBMC. Nature of the series: PBMC IL 17 stim. (Table 4, method not given). It is filed as cell-based.
The subject of series [1] is B-cells isolated from PBMC's. Put plainly: Chymotrypsin-like ProteasomeGlo assay in B-cells isolated from PBMCs. It is filed as cell-based, human. An excerpt: PBMC's will be isolated from human blood followed by B-cell isolation from the PBMC's using the Miltenyi Isolation Kit. • 2. This experiment will use the Chymotrypsin-like ProteasomeGlo read-out to generate IC50's following compound treatment. • 3. Dilute all compounds 1:100 for the assay. • 4. […] Repeat the DMSO transfer with lane 12. • 5. Lane 12 should not be seeded with any cells. Only medium! • 6. For all steps, make sure the samples and reagents remain cool! • 7. While dealing with the buffy coats, be careful to not let any exposed skin to be in direct contact with the blood. […] PBMC isolation followed by B-cell isolation using the Miltenyi Kit • Day 2: B-cell plating, ECHO transfer and ProteasomeGlo assay For the initial steps and to make processing the buffy coats easier, separately process the buffy coats. • a. Cut the tube attached to the buffy coats carefully using a clean, sterile and fresh scalpel. • b. Transfer the blood into 2 individual 50 ml falcons. • c. Add an equal volume of DPBS to the blood in the falcons. • d. Add 20 ml of lymphocyte separating medium to two 50 ml falcons. • e. Carefully pour 15-20 ml of the blood+DPBS mix from step c. onto the lymphocyte separating medium from step d. • f. Centrifuge the falcons with the lymphocyte separating medium+blood mix at 800×g for 15 minutes using a swing-out rotor. • g. Following centrifugation, carefully remove the falcons from the centrifuge. • h. The following layers will be observed: • i. Aspirate the plasma layer off carefully without disturbing the different layers. • j. Remove the cell pellet using a pipette into two fresh 50 ml falcons. • k. Fill the falcons with the cells up to 50 ml with DPBS. • l. Centrifuge the falcons at 250×g for 10 minutes using a swing-out rotor (Brake-off). • m. Aspirate the complete DPBS off the cells without disturbing the cell pellet at the bottom of the falcon. • n. Re-suspend the cell pellet in 10 ml of 1×RBC lysis buffer. • o. Incubate the falcons at room temperature in the dark for 10 minutes. • p. After RBC lysis, centrifuge the tubes at 250×g for 10 minutes using a swing-out rotor (brake-off). • (*Note: If the cell pellet is still red or light red, repeat steps n. to p.!) • q. Re-suspend the cell pellet in DPBS up to 50 ml in the falcon. • r. Centrifuge the falcons at 250×g for 10 minutes using a swing-out rotor (Brake-off). • s. Aspirate the DPBS off the cells without disturbing the cell pellet at the bottom of the falcon. • t. Repeat the wash step as described in steps q. to s. 2× times more (total number of washes is 3×). • u. Aspirate the DPBS completely off the cell pellet after the last wash without disturbing the cell pellet. • v. Re-suspend the cell pellet in 20 ml of PBMC cell medium. • w. […] Re-suspend the pellet in volume of the B-cell isolation buffer calculated as follows: • k. Mix well using a 1 ml pipette and incubate the mix on ice for 20 mins. • l. In the meantime, equilibrate one LS Column as follows: • 1. Insert one LS Column into one slot of the separator as depicted in the pictures above. • 2. Place a 50 ml falcon at the bottom of the LS column to collect the wash flow-through. • 3. Add 3 ml of the B-cell isolation buffer into the column. • 4. Allow the buffer to flow-through making sure that the entire volume passes the column and that the column reservoir is empty before the addition of the cells. • 5. Remove the falcon with the flow-through and discard. • m. Place a fresh 50 ml falcon under the LS Column to collect the untouched B-cells isolated from the PBMCs. • n. Apply the entire volume of the cell+antibody+microbeads mix to the LS Column. • o. Collect the flow-through from each application of the mix into the same 50 ml falcon under the LS Column. • p. Once the complete volume of the cell+antibody+microbead mix has been passed through, proceed to washing of the column. • q. Add 3 ml of the B-cell isolation buffer to the LS Column and allow the buffer to flow-through. […]

For series [2] the following is noted: from Cc1ccc(OCCC2CCCNC2)cc1CNC(=O)[C@H](CCc1ccccc1)NC(=O)[C@H](CC(=O)O)NC(=O)OCc1ccccc1; amide bond; HATU; DMF; 252.0 mM; 25.0 °C; 2 steps.
For a further series, the system named is Karpas cells. Nature of the series: Glo assay of Karpas cells (Table 3; ProteasomeGlo plating scheme). It is filed as cell-based. As to conditions: read-out: Pglo Karpas. An excerpt:
Inhibition is indicated as IC50 [nM] (“-”=not measured). […] • Chymotrypsin-Like Cell-Based Proteasome-GloTM Assay (Promega; […]) • Cell culture 384-well plates (Greiner BioOne; 781080) • Dispensing cassette, MultiDrop Standard tube dispensing cassette (Thermo Scientific; 24072670) • DPBS (Pan BioTech; P04-36500) • Cell culture 384-well plates (Greiner BioOne; 781080) • CPD source plate: diamond-shape plate (Labcyte; LP-0200) • Intermediate plate (Labcyte; P-05525) [table] • a. Remove the plates with cells from the incubator. • b. Take all the plates including the compound plate, intermediate plate and Staurosporine plate to the ECHO. • c. Click on “Open” in the ECHO software and select the protocol “QLI5_25ul_30 uM-Grenier”. • d. Follow the on-screen prompts and instructions once you click “Start” to insert the compound plate, intermediate plate and destination plates. • e. Change the final number of destination plates on the program. • f. Follow the on-screen prompts and instructions once you click “Start” to load the Staurosporine and destination plates. • g. Once all the compounds, DMSO and Staurosporine have been transferred, place the destination plates in a wet tissue box. • h. Place the destination plates back into the incubator and incubate at 37° C., 5% CO2 for 105 minutes. • i. Re-seal all the compound+Stauro diamond and intermediate plates and store in the dark. Chymotrypsin like ProteasomeGlo Assay • 1. Thaw the components of the ProteasomeGlo assay at room temperature including the ProteasomeGlo Buffer, the lyophilized Luciferin Detection Reagent and the Suc-LLVY-Glo Substrate. • 2. Reconstitute the Luciferin Detection Reagent in the amber coloured bottle by adding 50 ml of the ProteasomeGlo Buffer. • 3. Vortex the Suc-LLVY-Glo Substrate briefly to reconstitute the Substrate well. • 4. Spin down the Substrate and add 250 μl of the Substrate to the reconstituted Luciferin Detection Reagent from step 2. • 5. Briefly vortex the amber bottle with the mix to prepare a homogenous solution. • 6. Place the mix prepared in step 5 to sit at room temperature for 60 minutes. • 7. After 60 minutes, pipette 25 μl of the mix from step 5 into all wells with the cells. • 8. Shake the plates for 2-5 minutes to ensure the complete mixing of the ProteasomeGlo reagent with the cells. • 9. Leave the plates in the dark for 10-15 minutes. • 10. Measure the luminescence read-out using the Viktor and the protocol “Luminescence_384Well_0.2 sec”. (Note: The Protoeasome-GloTM Reagent (combined Proteasome-GloTM Substrate, Proteasome-GloTM Buffer and Luciferin Detection Reagent) can be stored at 4° C. or -20° C. for 1 month with minimal loss of activity.)

[3] abbreviates: Homo sapiens, B-cells isolated from PBMC's, read-out: Pglo B-Cell.

For the molecule `Cc1ccc2cc1CNC(=O)[C@H](CCc1ccccc1)NC(=O)[C@@H](NC(=O)Cc1ccccc1)CC(=O)N1CCCC(CCO2)C1` (stereo partly drawn) [Compound 29, N-((9S,12S)-5^4-methyl-8,11,14-trioxo-9-phenethyl-4-oxa-7,10-diaza-1(3,1)-piperidina-5(1,3)-benzenacyclotetradecaphane-12-yl)-2-phenylacetamide], the IC50 (in the series with B cell (B-cell); in the series with PBMC; in series [1] (setting [3])) was less than 100 nM in each case.
In the case of `Cc1ccc2cc1CNC(=O)[C@H](CCc1ccccc1)NC(=O)[C@@H](NC(=O)C(C)(C)C)CC(=O)N1CCCC(CCO2)C1` (stereo partly drawn) [Compound 27, N-((9S,12S)-5^4-methyl-8,11,14-trioxo-9-phenethyl-4-oxa-7,10-diaza-1(3,1)-piperidina-5(1,3)-benzenacyclotetradecaphane-12-yl)pivalamide], the IC50 (in the series with B cell (B-cell); with PBMC; in series [1] (setting [3])) was less than 100 nM in each case.
`Cc1ccc2cc1CNC(=O)[C@H](CCc1ccccc1)NC(=O)[C@@H](NC1COC1)CC(=O)N1CCCC(CCO2)C1` (stereo partly drawn) [Compound 35, (9S,12S)-5^4-methyl-12-(oxetan-3-ylamino)-9-phenethyl-4-oxa-7,10-diaza-1(3,1)-piperidina-5(1,3)-benzenacyclotetradecaphane-8,11,14-trione]: the IC50 (in the series with B cell (B-cell); in series [1] (setting [3])) was less than 100 nM in each case.
On to `Cc1ccc2cc1CNC(=O)[C@H](CCc1ccccc1)NC(=O)[C@@H](NC(=O)c1nc3ccccc3[nH]1)CC(=O)N1CCCC(CCO2)C1` (stereo partly drawn) [Compound 31, N-((9S,12S)-5^4-methyl-8,11,14-trioxo-9-phenethyl-4-oxa-7,10-diaza-1(3,1)-piperidina-5(1,3)-benzenacyclotetradecaphane-12-yl)-1H-benzo[d] imidazole-2-carboxamide], for which the IC50 in series [1] (setting [3]) is less than 100 nM.
`Cc1ccc2cc1CNC(=O)[C@H](CCc1ccccc1)NC(=O)[C@@H](NC(=O)OCc1ccccc1)CC(=O)N1CCCC(CCO2)C1` (stereo partly drawn) [Compound 7, benzyl ((9S,12S)-5^4-methyl-8,11,14-trioxo-9-phenethyl-4-oxa-7,10-diaza-1(3,1)-piperidina-5(1,3)-benzenacyclotetradecaphane-12-yl)carbamate]: the ring closure, yield of all isomers in series [2] is 68.9%.
Turning to `CC(=O)N[C@H]1CC(=O)N2CCCC(CCOc3ccc(C)c(c3)CNC(=O)[C@H](CCc3ccccc3)NC1=O)C2` (stereo partly drawn) [Compound 33, N-((9S,12S)-5^4-methyl-8,11,14-trioxo-9-phenethyl-4-oxa-7,10-diaza-1(3,1)-piperidina-5(1,3)-benzenacyclotetradecaphane-12-yl)acetamide], the IC50 (with B cell (B-cell); in series [1] (setting [3])) was less than 100 nM each time.
Consider `Cc1ccc2cc1CNC(=O)C(CCc1ccccc1)NC(=O)C(NC(=O)CCc1ccccc1)CC(=O)N1CCCC(CCO2)C1` [Compound 30, N-((9S,12S)-5^4-methyl-8,11,14-trioxo-9-phenethyl-4-oxa-7,10-diaza-1(3,1)-piperidina-5(1,3)-benzenacyclotetradecaphane-12-yl)-3-phenylpropanamide], for which the IC50 is less than 100 nM with B cell and less than 100 nM in series [1] (B-cells isolated from PBMC's, read-out: Pglo B-Cell).
As to `Cc1ccc2cc1CNC(=O)[C@H](CCc1ccccc1)NC(=O)[C@@H](NC(=O)CC(C)(C)C)CC(=O)N1CCCC(CCO2)C1` (stereo partly drawn) [Compound 28, 3,3-dimethyl-N-((9S,12S)-5^4-methyl-8,11,14-trioxo-9-phenethyl-4-oxa-7,10-diaza-1(3,1)-piperidina-5(1,3)-benzenacyclotetradecaphane-12-yl)butanamide], the IC50 in the series with Karpas cells is less than 100 nM.
Turning to `Cc1ccc2cc1CNC(=O)[C@H](CCc1ccccc1)NC(=O)[C@@H](Nc1ncccn1)CC(=O)N1CCCC(CCO2)C1` (stereo partly drawn) [Compound 34, (9S,12S)-5^4-methyl-9-phenethyl-12-(pyrimidin-2-ylamino)-4-oxa-7,10-diaza-1(3,1)], the IC50 is less than 100 nM in the series on B cell (B-cell) and less than 100 nM in series [1] (Homo sapiens, read-out: Pglo B-Cell [nM]).
Consider `Cc1ccc2cc1CNC(=O)[C@H](CCc1ccccc1)NC(=O)[C@@H](NC(=O)c1ncccn1)CC(=O)N1CCCC(CCO2)C1` (stereo partly drawn) [Compound 32, N-((9S,12S)-5^4-methyl-8,11,14-trioxo-9-phenethyl-4-oxa-7,10-diaza-1(3,1)-piperidina-5(1,3)-benzenacyclotetradecaphane-12-yl)pyrimidine-2-carboxamide], for which the IC50 in series [1] (setting [3]) is less than 100 nM.
Regarding `Cc1ccc2cc1CNC(=O)[C@H](CCc1ccccc1)NC(=O)[C@@H](NC(=O)Cc1ccccc1C)CC(=O)N1CCCC(CCO2)C1` (stereo partly drawn) [Compound 373, N-((9S,12S)-5^4-methyl-8,11,14-trioxo-9-phenethyl-4-oxa-7,10-diaza-1(3,1)-piperidina-5(1,3)-benzenacyclotetradecaphane-12-yl)-2-(o-tolyl)acetamide], the IC50 (in the series with Karpas cells; in series [1] (setting [3])) was less than 100 nM each time.
